Tests used:
ryegrass, Italian [1] = assay: Test E preemergence herbicide test; assay type: in vivo, Lolium multiflorum; parameters: key: 0 = no effect, 100 = complete control
Summary of the method: (§1)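 Seeds were sown in silt loam soil and treated preemergence with test chemicals in a non-phytotoxic solvent mixture containing a surfactant. Plants were kept in a greenhouse for 21 days, then visually rated against untreated controls on a 0–100 scale (0 = no effect, 100 = complete control).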

ryegrass, Italian [2] = assay: Test D pre-/postemergence herbicide test; assay type: in vivo, Lolium multiflorum; conditions: for Plant response rating: Postemergence, Ryegrass, Italian, scale 0 to 100; for Plant response rating, Ryegrass, Italian: Preemergence, scale 0 to 100 (0 no effect, 100 complete control)
Summary of the method: (§2)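 Greenhouse pre- and postemergence screen with surfactant-containing non-phytotoxic solvent formulations. Silt loam soil served for preemergence application, and peat/vermiculite medium for postemergence application at 2–18 cm height. Visual 0–100 control ratings versus controls were recorded 7 to 21 days later.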

foxtail, green = assay: Test D pre-/postemergence herbicide test; assay type: in vivo, Setaria viridis; conditions: for Plant response rating: Foxtail, Green, scale 0 to 100; for Plant response rating, Foxtail, Green: scale 0 to 100 (0 no effect, 100 complete control)
Summary of the method: as §2

pigweed = assay: Test D pre-/postemergence herbicide test; assay type: in vivo, Amaranthus retroflexus; conditions: for Plant response rating: Postemergence, Pigweed, scale 0 to 100; for Plant response rating, Pigweed: Preemergence, scale 0 to 100 (0 no effect, 100 complete control)
Summary of the method: as §2

crabgrass, Brazil = assay: Test E preemergence herbicide test; assay type: in vivo, Digitaria horizontalis; parameters: key: 0 = no effect, 100 = complete control
Summary of the method: as §1

chickweed = assay: Test D pre-/postemergence herbicide test; assay type: in vivo, Stellaria media; conditions: for Plant response rating: Chickweed, scale 0 to 100; for Plant response rating, Chickweed: scale 0 to 100 (0 no effect, 100 complete control)
Summary of the method: as §2

lambsquarters = assay: Test E preemergence herbicide test; assay type: in vivo, Chenopodium album; parameters: key: 0 = no effect, 100 = complete control
Summary of the method: as §1

soybean = assay: Test E preemergence herbicide test; assay type: in vivo, Glycine max; parameters: key: 0 = no effect, 100 = complete control
Summary of the method: as §1

bromegrass, downy = assay: Test D pre-/postemergence herbicide test; assay type: in vivo, Bromus tectorum; conditions: for Plant response rating: Bromegrass, Downy, scale 0 to 100; for Plant response rating, Bromegrass, Downy: scale 0 to 100 (0 no effect, 100 complete control)
Summary of the method: as §2

crabgrass, large = assay: Test E preemergence herbicide test; assay type: in vivo, Digitaria sanguinalis; parameters: key: 0 = no effect, 100 = complete control
Summary of the method: as §1

corn = assay: Test E preemergence herbicide test; assay type: in vivo, Zea mays; parameters: key: 0 = no effect, 100 = complete control
Summary of the method: as §1

## O=C1NCC(c2ccc(F)c(F)c2)C1C(=O)Nc1cccc(F)c1F (centres unmarked) [Compound 17, N-(2,3-difluorophenyl)-4-(3,4-difluorophenyl)-2-oxo-3-pyrrolidinecarboxamide]
ryegrass, Italian [1]; 16 g ai/ha
  Plant response rating, Ryegrass, Italian: 0
ryegrass, Italian [1]; 31 g ai/ha
  Plant response rating, Ryegrass, Italian: 0
ryegrass, Italian [1]; 62 g ai/ha
  Plant response rating, Ryegrass, Italian: 0
ryegrass, Italian [1]; 125 g ai/ha
  Plant response rating, Ryegrass, Italian: 0
ryegrass, Italian [1]; 250 g ai/ha
  Plant response rating, Ryegrass, Italian: 0
ryegrass, Italian [2]; 16 g ai/ha
  Plant response rating: 0
ryegrass, Italian [2]; 31 g ai/ha
  Plant response rating: 0
ryegrass, Italian [2]; 62 g ai/ha
  Plant response rating: 0
ryegrass, Italian [2]; 125 g ai/ha
  Plant response rating: 0
ryegrass, Italian [2]; 250 g ai/ha
  Plant response rating: 0
foxtail, green; Postemergence, 16 g ai/ha
  Plant response rating: 0
foxtail, green; Postemergence, 31 g ai/ha
  Plant response rating: 0
foxtail, green; Postemergence, 62 g ai/ha
  Plant response rating: 0
foxtail, green; Postemergence, 125 g ai/ha
  Plant response rating: 0
foxtail, green; Postemergence, 250 g ai/ha
  Plant response rating: 0
pigweed; 16 g ai/ha
  Plant response rating: 0
pigweed; 31 g ai/ha
  Plant response rating: 0
pigweed; 62 g ai/ha
  Plant response rating: 40
pigweed; 125 g ai/ha
  Plant response rating: 50
pigweed; 250 g ai/ha
  Plant response rating: 50
crabgrass, Brazil; 16 g ai/ha
  Plant response rating, Crabgrass, Brazil: 40
crabgrass, Brazil; 31 g ai/ha
  Plant response rating, Crabgrass, Brazil: 65
crabgrass, Brazil; 62 g ai/ha
  Plant response rating, Crabgrass, Brazil: 95
crabgrass, Brazil; 125 g ai/ha
  Plant response rating, Crabgrass, Brazil: 95
crabgrass, Brazil; 250 g ai/ha
  Plant response rating, Crabgrass, Brazil: 98
chickweed; Postemergence, 16 g ai/ha
  Plant response rating: 0
chickweed; Postemergence, 31 g ai/ha
  Plant response rating: 0
chickweed; Postemergence, 62 g ai/ha
  Plant response rating: 0
chickweed; Postemergence, 125 g ai/ha
  Plant response rating: 25
chickweed; Postemergence, 250 g ai/ha
  Plant response rating: 30
lambsquarters; 16 g ai/ha
  Plant response rating, Lambsquarters: 0
lambsquarters; 31 g ai/ha
  Plant response rating, Lambsquarters: 0
lambsquarters; 62 g ai/ha
  Plant response rating, Lambsquarters: 0
lambsquarters; 125 g ai/ha
  Plant response rating, Lambsquarters: 0
lambsquarters; 250 g ai/ha
  Plant response rating, Lambsquarters: 0
soybean; 16 g ai/ha
  Plant response rating, Soybean: 0
soybean; 31 g ai/ha
  Plant response rating, Soybean: 0
soybean; 62 g ai/ha
  Plant response rating, Soybean: 0
soybean; 125 g ai/ha
  Plant response rating, Soybean: 0
soybean; 250 g ai/ha
  Plant response rating, Soybean: 0
bromegrass, downy; Postemergence, 16 g ai/ha
  Plant response rating: 0
bromegrass, downy; Postemergence, 31 g ai/ha
  Plant response rating: 0
bromegrass, downy; Postemergence, 62 g ai/ha
  Plant response rating: 0
bromegrass, downy; Postemergence, 125 g ai/ha
  Plant response rating: 0
bromegrass, downy; Postemergence, 250 g ai/ha
  Plant response rating: 0
crabgrass, large; 16 g ai/ha
  Plant response rating, Crabgrass, Large: 15
crabgrass, large; 31 g ai/ha
  Plant response rating, Crabgrass, Large: 20
crabgrass, large; 62 g ai/ha
  Plant response rating, Crabgrass, Large: 70
crabgrass, large; 125 g ai/ha
  Plant response rating, Crabgrass, Large: 75
crabgrass, large; 250 g ai/ha
  Plant response rating, Crabgrass, Large: 95
corn; 16 g ai/ha
  Plant response rating, Corn: 0
corn; 31 g ai/ha
  Plant response rating, Corn: 0
corn; 62 g ai/ha
  Plant response rating, Corn: 0
corn; 125 g ai/ha
  Plant response rating, Corn: 0
corn; 250 g ai/ha
  Plant response rating, Corn: 0

## O=C1NC[C@H](c2cccc(C(F)(F)F)c2)[C@H]1C(=O)Nc1ccccc1F [Compound 204, (3R,4S)—N-(2-fluorophenyl)-2-oxo-4-[3-(trifluoromethyl)phenyl]-3-pyrrolidinecarboxamide]
ryegrass, Italian [1]; 31 g ai/ha
  Plant response rating, Ryegrass, Italian: 0
ryegrass, Italian [1]; 62 g ai/ha
  Plant response rating, Ryegrass, Italian: 0
ryegrass, Italian [1]; 125 g ai/ha
  Plant response rating, Ryegrass, Italian: 25
ryegrass, Italian [1]; 250 g ai/ha
  Plant response rating, Ryegrass, Italian: 30
ryegrass, Italian [2]; 62 g ai/ha
  Plant response rating, Ryegrass, Italian: 15
ryegrass, Italian [2]; 125 g ai/ha
  Plant response rating, Ryegrass, Italian: 45
ryegrass, Italian [2]; 31 g ai/ha
  Plant response rating, Ryegrass, Italian: 5
ryegrass, Italian [2]; 250 g ai/ha
  Plant response rating, Ryegrass, Italian: 60
foxtail, green; Preemergence, 62 g ai/ha
  Plant response rating, Foxtail, Green: 98
foxtail, green; Preemergence, 125 g ai/ha
  Plant response rating, Foxtail, Green: 98
foxtail, green; Preemergence, 31 g ai/ha
  Plant response rating, Foxtail, Green: 90
foxtail, green; Preemergence, 250 g ai/ha
  Plant response rating: 100
pigweed; 62 g ai/ha
  Plant response rating, Pigweed: 5
pigweed; 125 g ai/ha
  Plant response rating, Pigweed: 35
pigweed; 31 g ai/ha
  Plant response rating, Pigweed: 0
pigweed; 250 g ai/ha
  Plant response rating, Pigweed: 35
crabgrass, Brazil; 31 g ai/ha
  Plant response rating, Crabgrass, Brazil: 95
crabgrass, Brazil; 62 g ai/ha
  Plant response rating, Crabgrass, Brazil: 95
crabgrass, Brazil; 125 g ai/ha
  Plant response rating, Crabgrass, Brazil: 98
crabgrass, Brazil; 250 g ai/ha
  Plant response rating, Crabgrass, Brazil: 98
chickweed; Preemergence, 62 g ai/ha
  Plant response rating, Chickweed: 100
chickweed; Preemergence, 125 g ai/ha
  Plant response rating, Chickweed: 100
chickweed; Preemergence, 31 g ai/ha
  Plant response rating, Chickweed: 100
chickweed; Preemergence, 250 g ai/ha
  Plant response rating: 100
lambsquarters; 31 g ai/ha
  Plant response rating, Lambsquarters: 98
lambsquarters; 62 g ai/ha
  Plant response rating, Lambsquarters: 98
lambsquarters; 125 g ai/ha
  Plant response rating, Lambsquarters: 90
lambsquarters; 250 g ai/ha
  Plant response rating, Lambsquarters: 65
soybean; 31 g ai/ha
  Plant response rating, Soybean: 0
soybean; 62 g ai/ha
  Plant response rating, Soybean: 0
soybean; 125 g ai/ha
  Plant response rating, Soybean: 0
bromegrass, downy; Preemergence, 62 g ai/ha
  Plant response rating, Bromegrass, Downy: 20
bromegrass, downy; Preemergence, 125 g ai/ha
  Plant response rating, Bromegrass, Downy: 35
bromegrass, downy; Preemergence, 31 g ai/ha
  Plant response rating, Bromegrass, Downy: 0
bromegrass, downy; Preemergence, 250 g ai/ha
  Plant response rating: 45
crabgrass, large; 31 g ai/ha
  Plant response rating, Crabgrass, Large: 95
crabgrass, large; 62 g ai/ha
  Plant response rating, Crabgrass, Large: 98
crabgrass, large; 125 g ai/ha
  Plant response rating, Crabgrass, Large: 98
crabgrass, large; 250 g ai/ha
  Plant response rating, Crabgrass, Large: 98
corn; 31 g ai/ha
  Plant response rating, Corn: 0
corn; 62 g ai/ha
  Plant response rating, Corn: 0
corn; 125 g ai/ha
  Plant response rating, Corn: 0
corn; 250 g ai/ha
  Plant response rating, Corn: 40

Reference: patent publication US10294202B2, “Pyrrolidinones as herbicides” (FMC Corporation, priority 2013, dated 2019)
